Target: T1, SmVKR1 (Schistosoma mansoni, UniProt Q8WSM2)
T1 construct: full-length, pcDNA3.1-V5/His (V5 or Myc tag), cRNA-injected Xenopus laevis oocytes; about 150 kDa; active as homodimer
Assay: GVBD assay in receptor-expressing Xenopus oocytes
Format: cell-based
Conditions: agonist

T1 sequence (Q8WSM2 24-1559): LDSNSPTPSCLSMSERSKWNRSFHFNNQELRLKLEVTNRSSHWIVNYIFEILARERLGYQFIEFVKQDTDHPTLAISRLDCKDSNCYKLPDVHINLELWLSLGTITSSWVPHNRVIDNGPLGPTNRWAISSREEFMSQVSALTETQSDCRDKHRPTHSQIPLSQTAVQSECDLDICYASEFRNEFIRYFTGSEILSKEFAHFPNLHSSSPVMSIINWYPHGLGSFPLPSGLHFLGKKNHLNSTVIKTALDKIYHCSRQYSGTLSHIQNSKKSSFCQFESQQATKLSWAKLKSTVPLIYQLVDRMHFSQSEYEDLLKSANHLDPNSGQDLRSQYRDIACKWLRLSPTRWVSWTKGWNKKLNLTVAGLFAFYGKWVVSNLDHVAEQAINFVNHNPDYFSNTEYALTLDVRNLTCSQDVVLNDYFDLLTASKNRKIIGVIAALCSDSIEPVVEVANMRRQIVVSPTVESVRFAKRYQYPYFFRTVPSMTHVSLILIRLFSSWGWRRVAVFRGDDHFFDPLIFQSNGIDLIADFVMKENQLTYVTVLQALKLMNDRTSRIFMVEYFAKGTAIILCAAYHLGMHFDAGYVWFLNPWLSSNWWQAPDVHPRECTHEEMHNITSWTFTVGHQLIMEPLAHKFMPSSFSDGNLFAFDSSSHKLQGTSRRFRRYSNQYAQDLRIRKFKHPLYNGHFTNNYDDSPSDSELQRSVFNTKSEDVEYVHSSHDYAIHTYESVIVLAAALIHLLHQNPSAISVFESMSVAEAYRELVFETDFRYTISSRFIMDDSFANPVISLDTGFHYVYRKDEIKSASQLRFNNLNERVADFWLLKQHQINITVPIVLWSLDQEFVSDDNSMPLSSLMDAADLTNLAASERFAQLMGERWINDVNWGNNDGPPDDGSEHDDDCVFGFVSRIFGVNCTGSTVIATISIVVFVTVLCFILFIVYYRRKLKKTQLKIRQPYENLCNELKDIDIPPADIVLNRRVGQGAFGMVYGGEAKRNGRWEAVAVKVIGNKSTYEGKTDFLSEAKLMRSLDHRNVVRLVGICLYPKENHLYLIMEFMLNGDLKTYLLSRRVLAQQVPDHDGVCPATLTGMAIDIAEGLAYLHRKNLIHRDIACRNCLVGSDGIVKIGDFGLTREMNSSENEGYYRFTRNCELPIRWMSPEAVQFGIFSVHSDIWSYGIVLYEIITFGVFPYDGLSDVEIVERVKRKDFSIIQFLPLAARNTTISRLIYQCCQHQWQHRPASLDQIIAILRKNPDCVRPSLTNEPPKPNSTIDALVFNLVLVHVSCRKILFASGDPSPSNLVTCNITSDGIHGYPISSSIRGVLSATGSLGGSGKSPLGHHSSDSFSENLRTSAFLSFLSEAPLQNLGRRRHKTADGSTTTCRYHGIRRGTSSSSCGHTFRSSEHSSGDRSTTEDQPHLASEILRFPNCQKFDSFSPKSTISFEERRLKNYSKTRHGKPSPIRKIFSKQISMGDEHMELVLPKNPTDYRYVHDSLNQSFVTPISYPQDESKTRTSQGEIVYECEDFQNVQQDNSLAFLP

Row | SMILES | GVBD at 1 mM
1 | NCC(=O)O [Gly] | (Arg, Ser, Gly, Ala, Cys, Thr and Glu) had the potential to activate SmVKR1
2 | C[C@@H](O)[C@H](N)C(=O)O [Thr] | (Arg, Ser, Gly, Ala, Cys, Thr and Glu) had the potential to activate SmVKR1
3 | N[C@@H](CO)C(=O)O [Ser] | (Arg, Ser, Gly, Ala, Cys, Thr and Glu) had the potential to activate SmVKR1
4 | N[C@@H](CCC(=O)O)C(=O)O [Glu] | (Arg, Ser, Gly, Ala, Cys, Thr and Glu) had the potential to activate SmVKR1
5 | N[C@@H](CS)C(=O)O [Cys] | (Arg, Ser, Gly, Ala, Cys, Thr and Glu) had the potential to activate SmVKR1
6 | C[C@H](N)C(=O)O [Ala] | (Arg, Ser, Gly, Ala, Cys, Thr and Glu) had the potential to activate SmVKR1

Target: T2, SmVKR2 (Schistosoma mansoni, UniProt D5JEH1)
T2 construct: full-length, pcDNA3.1-V5/His (V5 or Myc tag), cRNA-injected Xenopus laevis oocytes; about 170 kDa; active as homodimer
Assay: GVBD assay in receptor-expressing Xenopus oocytes; receptor autophosphorylation by Western blot
Format: cell-based
Conditions: agonist; ND96 medium without Ca2+; VFT domain

T2 sequence (D5JEH1 21-1641): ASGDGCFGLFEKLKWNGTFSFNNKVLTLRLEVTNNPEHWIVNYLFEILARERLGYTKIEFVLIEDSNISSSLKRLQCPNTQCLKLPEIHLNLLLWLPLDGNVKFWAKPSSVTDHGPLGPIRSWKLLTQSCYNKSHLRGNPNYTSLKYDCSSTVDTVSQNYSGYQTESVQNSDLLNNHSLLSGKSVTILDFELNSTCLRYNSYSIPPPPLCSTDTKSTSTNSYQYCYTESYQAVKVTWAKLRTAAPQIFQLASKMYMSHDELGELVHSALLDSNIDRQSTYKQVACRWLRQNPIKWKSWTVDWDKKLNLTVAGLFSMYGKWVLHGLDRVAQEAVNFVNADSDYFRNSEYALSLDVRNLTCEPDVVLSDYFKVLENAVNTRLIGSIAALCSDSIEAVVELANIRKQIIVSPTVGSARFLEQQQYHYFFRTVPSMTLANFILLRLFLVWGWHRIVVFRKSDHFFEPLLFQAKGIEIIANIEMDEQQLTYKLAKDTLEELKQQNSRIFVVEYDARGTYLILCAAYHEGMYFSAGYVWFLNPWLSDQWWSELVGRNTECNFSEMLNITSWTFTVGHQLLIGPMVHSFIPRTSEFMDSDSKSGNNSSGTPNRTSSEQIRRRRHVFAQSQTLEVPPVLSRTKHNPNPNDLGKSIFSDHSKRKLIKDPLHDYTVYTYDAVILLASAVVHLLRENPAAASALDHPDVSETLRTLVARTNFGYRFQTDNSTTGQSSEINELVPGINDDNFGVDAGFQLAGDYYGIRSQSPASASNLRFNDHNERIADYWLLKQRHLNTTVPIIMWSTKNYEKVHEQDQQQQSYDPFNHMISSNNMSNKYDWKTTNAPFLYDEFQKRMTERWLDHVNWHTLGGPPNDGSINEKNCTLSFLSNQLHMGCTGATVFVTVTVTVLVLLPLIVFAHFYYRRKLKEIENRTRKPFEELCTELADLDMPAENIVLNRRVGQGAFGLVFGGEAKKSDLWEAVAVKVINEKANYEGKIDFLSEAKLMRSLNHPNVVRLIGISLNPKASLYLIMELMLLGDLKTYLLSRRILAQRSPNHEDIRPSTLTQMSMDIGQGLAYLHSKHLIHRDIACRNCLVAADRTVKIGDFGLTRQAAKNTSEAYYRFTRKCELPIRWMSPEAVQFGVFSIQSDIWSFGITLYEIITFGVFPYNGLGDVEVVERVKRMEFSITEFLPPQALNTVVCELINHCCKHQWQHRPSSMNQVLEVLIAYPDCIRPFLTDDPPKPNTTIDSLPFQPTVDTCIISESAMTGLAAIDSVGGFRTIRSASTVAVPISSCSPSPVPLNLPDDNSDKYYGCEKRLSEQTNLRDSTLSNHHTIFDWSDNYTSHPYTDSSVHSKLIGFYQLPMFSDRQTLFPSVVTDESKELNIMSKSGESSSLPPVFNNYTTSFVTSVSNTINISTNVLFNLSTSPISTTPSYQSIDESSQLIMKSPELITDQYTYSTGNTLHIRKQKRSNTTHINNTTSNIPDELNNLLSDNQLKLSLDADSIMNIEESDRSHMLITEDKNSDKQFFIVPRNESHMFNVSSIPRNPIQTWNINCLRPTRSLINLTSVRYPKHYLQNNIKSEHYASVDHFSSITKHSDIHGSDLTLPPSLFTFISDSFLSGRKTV

Row | SMILES | minimal concentration [mM]
7 | N=C(N)NCCC[C@H](N)C(=O)O [L-Arg] | 1

Target: T1, SmVKR1
Assay: as above
Format: cell-based
Conditions: agonist; ND96 medium, 19 °C, 15 h; VFT domain; activation independent of Ca2+

Row | SMILES | % GVBD at 1 μM [%]
8 | N=C(N)NCCC[C@H](N)C(=O)O [L-Arg] | 80

Target: T1, SmVKR1
Assay: GVBD competition assay in receptor-expressing Xenopus oocytes
Format: cell-based
Conditions: competitive antagonist; 10-fold excess over L-Arg; inactive as agonist

Row | SMILES | GVBD competition assay in receptor-expressing Xenopus oocytes
9 | N=C(N)NCCC[C@@H](N)C(=O)O [D-Arg] | compete and to block totally the inducing effect of L-Arg
10 | N=C(N)NOCC[C@H](N)C(=O)O [Canavanine] | compete and to block totally the inducing effect of L-Arg
11 | N=C(N)NCCCCN [agmatine] | compete and to block totally the inducing effect of L-Arg
12 | NCCC[C@H](N)C(=O)O [ornithine] | compete and to block totally the inducing effect of L-Arg
13 | CN(CC(=O)O)C(=N)N [creatine] | compete and to block totally the inducing effect of L-Arg
